The source made the active and inactive calls. The rule behind the calls is not given here.
Legend:
U-937 [1] = experiment: Inhibition of PALP-fussed TNFalpha production in human U937 cells; format: functional, cell-based
U-937 [2] = experiment: Inhibition of PALP-fussed actin production in human U937 cells; format: functional, cell-based
Mus musculus = experiment: Antiinflammatory activity in iv dosed mouse assessed as inhibition of LPS-stimulated TNFalpha production; format: functional

Row | IC50 (U-937 [1]) [nM] | IC50 (U-937 [2]) [nM] | Compound | ED50 (Mus musculus)
1 | 319 | > 10000 | C[C@@H]1/C=C\C(=O)[C@@H](O)[C@@H](O)C/C=C/c2cc(OCc3ccccc3)cc(O)c2C(=O)O[C@H]1C | –
2 | 325 | > 10000 | CCCCOc1cc(O)c2c(c1)/C=C/C[C@H](O)[C@H](O)C(=O)/C=C\[C@@H](C)[C@H](C)OC2=O | –
3 | 65 | > 10000 | CC(=O)NCCOc1cc(O)c2c(c1)/C=C/C[C@H](O)[C@H](O)C(=O)/C=C\[C@@H](C)[C@H](C)OC2=O | –
4 | 113 | > 10000 | C[C@@H]1/C=C\C(=O)[C@@H](O)[C@@H](O)C/C=C/c2cc(OCCNc3ccccn3)cc(O)c2C(=O)O[C@H]1C | –
5 | 687 | > 10000 | CC(C)Oc1cc(O)c2c(c1)/C=C/C[C@H](O)[C@H](O)C(=O)/C=C\[C@@H](C)[C@H](C)OC2=O | –
6 | 32 | > 10000 | C[C@@H]1/C=C\C(=O)[C@@H](O)[C@@H](O)C/C=C/c2cc(OCCCS(C)(=O)=O)cc(O)c2C(=O)O[C@H]1C | 9.8 mg/kg
7 | – | – | COc1cc(O)c2c(c1)/C=C/C[C@H](O)[C@H](O)C(=O)/C=C\C[C@H](C)OC2=O | inactive
8 | 804 | > 10000 | COc1cc(O)c2c(c1Br)/C=C/C[C@H](O)[C@H](O)C(=O)/C=C\[C@@H](C)[C@H](C)OC2=O | –
9 | 752 | > 10000 | C[C@@H]1/C=C\C(=O)[C@@H](O)[C@@H](O)C/C=C/c2cc(OCc3ccc(Cl)c(Cl)c3)cc(O)c2C(=O)O[C@H]1C | –
10 | 615 | > 10000 | C[C@@H]1/C=C\C(=O)[C@@H](O)[C@@H](O)C/C=C/c2cc(OC(F)F)cc(O)c2C(=O)O[C@H]1C | –
11 | 31 | > 10000 | CC(=O)NCC(=O)COc1cc(O)c2c(c1)/C=C/C[C@H](O)[C@H](O)C(=O)/C=C\[C@@H](C)[C@H](C)OC2=O | –
12 | 15 | > 10000 | C[C@@H]1/C=C\C(=O)[C@@H](O)[C@@H](O)C/C=C/c2cc(OCCn3ccnc3)cc(O)c2C(=O)O[C@H]1C | 6.5 mg/kg
13 | 100 | > 10000 | CCOc1cc(O)c2c(c1)/C=C/C[C@H](O)[C@H](O)C(=O)/C=C\[C@@H](C)[C@H](C)OC2=O | 12 mg/kg
14 | 59 | > 10000 | C[C@@H]1/C=C\C(=O)[C@@H](O)[C@@H](O)C/C=C/c2cc(OCCN3CCOCC3)cc(O)c2C(=O)O[C@H]1C | –
15 | 168 | > 10000 | COc1ccc(COc2cc(O)c3c(c2)/C=C/C[C@H](O)[C@H](O)C(=O)/C=C\[C@@H](C)[C@H](C)OC3=O)cc1 | –
16 | 597 | > 10000 | C[C@@H]1/C=C\C(=O)[C@@H](O)[C@@H](O)C/C=C/c2cc(OCCN(C)C)cc(O)c2C(=O)O[C@H]1C | –
17 | 249 | > 10000 | CCCOc1cc(O)c2c(c1)/C=C/C[C@H](O)[C@H](O)C(=O)/C=C\[C@@H](C)[C@H](C)OC2=O | –
18 | 293 | > 10000 | COc1cc(O)c2c(c1)NC(=O)C[C@H](O)[C@H](O)C(=O)/C=C\[C@@H](C)[C@H](C)OC2=O | –
19 | 383 | > 10000 | C[C@@H]1/C=C\C(=O)[C@@H](O)[C@@H](O)C/C=C/c2cc(OCC(O)CO)cc(O)c2C(=O)O[C@H]1C (some centres undefined) | –
20 | 515 | > 10000 | C[C@@H]1/C=C\C(=O)[C@@H](O)[C@@H](O)C/C=C/c2cc(O)cc(O)c2C(=O)O[C@H]1C | –
21 | 136 | > 10000 | COc1cc(O)c2c(c1)/C=C/C[C@H](O)[C@H](O)C(=O)/C=C\[C@@H](C)[C@H](C)OC2=O | 13.2 mg/kg
22 | 43 | > 10000 | C[C@@H]1/C=C\C(=O)[C@@H](O)[C@@H](O)C/C=C/c2cc(OCCn3ccnn3)cc(O)c2C(=O)O[C@H]1C | –
23 | 1680 | > 10000 | COc1cc(O)c2c(c1)OCC[C@H](O)[C@H](O)C(=O)/C=C\[C@@H](C)[C@H](C)OC2=O | –
